Data as given in publication PMC12040169 (PLOS Biology, 2025).

Experiment: in vitro
Details: human, hela cells, % viability

Row | Structure (SMILES) | viability at 28.5 h, 10 µM [%]
1 | O=C(C1CCCN(S(=O)(=O)c2ccc(F)cc2)C1)N(Cc1ccccc1)Cc1ccccc1 (centres unmarked) [CBK267652] | 108
2 | N#Cc1c(NC(=O)CSc2nnc(-c3ccc(Cl)cc3)o2)oc(-c2ccccc2)c1-c1ccccc1 [CBK267655] | 93.9
3 | CC(C)C(NS(=O)(=O)c1ccc([N+](=O)[O-])cc1)C(C)C [CBK267656] | 94.8
4 | CC(NS(=O)(=O)c1ccc(F)cc1)C(=O)Nc1ccc(C(N)=O)cc1 (centres unmarked) [CBK267658] | 104
5 | CN(C)S(=O)(=O)N(CC(=O)O)c1ccccc1 [CBK267660] | 105
6 | Cc1ccc2c(C)c(C(=O)Nc3ccc(S(N)(=O)=O)cc3)oc2c1 [CBK267661] | 110
7 | Cc1ccc2c(C)c(C(=O)Nc3sc4c(c3C(=O)NCc3ccco3)CCC4)oc2c1 [CBK267662] | 99.2
8 | Cc1c(C(=O)Nc2ccc(S(=O)(=O)N3CCCCCC3)cc2)oc2ccc(Cl)cc12 [CBK267664] | 89.2
9 | NC(=O)Cn1c(=O)n(CCc2ccccc2)c(=O)c2c3c(sc21)CCCC3 [CBK267665] | 103
10 | COC(=O)Cn1c(=O)n(CCc2ccccc2)c(=O)c2c3c(sc21)CCCC3 [CBK267666] | 98.6
11 | COc1ccc(CNc2oc(-c3ccccc3)nc2S(=O)(=O)c2ccccc2)cc1 [CBK267669] | 105
12 | CC(Nc1oc(-c2ccco2)nc1S(=O)(=O)c1ccc(F)cc1)c1ccccc1 (centres unmarked) [CBK267671] | 73.2
13 | O=C(O)CCC(=O)Nc1ccccc1C(=O)NC1CCCCC1 [CBK267674] | 105
14 | O=C(NC1CCCCC1)c1ccccc1NC(=O)C1CCCCC1C(=O)O (centres unmarked) [CBK267675] | 97
15 | Cc1ccccc1C(=O)NCCNC(=O)c1nonc1N [CBK267677] | 103
16 | Cc1ccc(SCC(=O)NCCCN2CCOCC2)cc1 [CBK267678] | 99.3
17 | NC(=O)c1ccccc1NC(=O)CCCN1C(=O)CCC1=O [CBK267680] | 94.1
18 | O=C(CCCCCN1C(=O)CCC1=O)Nc1nc[nH]n1 [CBK267682] | 103
19 | COc1ccc(/C(N)=N/OC(=O)CN(C)S(=O)(=O)c2ccccc2)cc1 [CBK267683] | 93
20 | O=C(CCn1cnc2ccccc2c1=O)Nc1cccc(C(F)(F)F)c1 [CBK267687] | 91.5
21 | CCOC(=O)c1ccc(Cn2c(-c3ccccc3)nnc2-c2ccccc2)o1 [CBK267691] | 87.8
22 | Cn1c(=O)c2c(nc(SCC(=O)CSc3nc4c(c(=O)n(C)c(=O)n4C)n3C)n2C)n(C)c1=O [CBK267692] | 86.9
23 | NS(=O)(=O)c1ccc(NC(=O)CCC2COc3ccccc3O2)cc1 (centres unmarked) [CBK267696] | 87.9
24 | COc1ccc(C(=O)NNS(=O)(=O)N(C)C)cc1OC [CBK267697] | 99.1
25 | CCOC(=O)c1c(-c2ccc(C)o2)csc1NC(=O)CN1C(=O)c2ccccc2C1=O [CBK267699] | 85.1
26 | CC(C)(O)C#Cc1ccc(C(=O)NC(CSCc2ccccc2)C(=O)O)s1 (centres unmarked) [CBK267705] | 98.4
27 | N=C(N)NC(=N)NCCc1c[nH]c2ccccc12 [CBK267706G] | 89.3

Row | Structure (SMILES) | viability at 28.5 h, 10 µM [%]
28 | Cn1c(=O)c2c(nc(N3CCOCC3)n2CC/N=C2/CCCN2)n(C)c1=O [CBK267709C] | 85.9
29 | CN(C)CCn1c2c(c3ccccc31)CCCn1nnnc1-2 [CBK267713C] | 94.8
30 | Cc1ccc(-n2c(SCC(=O)NC(C)Cc3ccccc3)nc3sc4c(c3c2=O)CC(C)(C)OC4)cc1 (centres unmarked) [CBK267714] | 94.7
31 | CSc1nc(SCC(=O)N(c2ccccc2)c2ccccc2)c2c3c(sc2n1)CCC3 [CBK267715] | 90.6
32 | CC(NS(=O)(=O)c1cccc2c(S(=O)(=O)NC(C)c3ccccc3)cccc12)c1ccccc1 (centres unmarked) [CBK267717] | 83.6
33 | O=C(Nc1cccc(S(=O)(=O)N2CCOCC2)c1)c1cc(-c2cccnc2)nc2ccc(Cl)cc12 [CBK267720] | 98
34 | COc1cc2c(cc1NC(=O)c1cc(-c3cccnc3)nc3ccc(C)cc13)oc1ccccc12 [CBK267722] | 92.1
35 | O=C(Nc1ccc(N2CCOCC2)c2nonc12)c1cc(-c2cccnc2)nc2ccc(Cl)cc12 [CBK267724] | 89.8
36 | O=C(Nc1ccc(C(=O)N2CCOCC2)cc1)c1cc(-c2cccnc2)nc2ccc(Cl)cc12 [CBK267725] | 93
37 | NS(=O)(=O)c1ccc(CNC(=O)c2cc(-c3cccnc3)nc3ccc(Cl)cc23)cc1 [CBK267727] | 83.8
38 | CN(C)CCNC(=O)c1cc(-c2ccncc2)nc2ccc(Br)cc12 [CBK267728] | 103
39 | CN1CCN(NC(=O)c2cc(-c3cccnc3)nc3ccc(Cl)cc23)CC1 [CBK267729] | 110
40 | CN1CCN(S(=O)(=O)c2ccc(NC(=O)c3cc(-c4ccncc4)nc4ccc(Cl)cc34)cc2)CC1 [CBK267730] | 98.6
41 | Cc1c(Cl)ccc2c(C(=O)NCCCn3cc(Br)cn3)cc(-c3ccncc3)nc12 [CBK267731] | 95.1
42 | Cc1ccc2nc(-c3ccncc3)cc(C(=O)Nc3ccc(C(F)(F)F)cc3)c2c1 [CBK267732] | 91.6
43 | CN1CCN(S(=O)(=O)c2ccc(NC(=O)c3cc(-c4cccnc4)nc4ccc(Cl)cc34)cc2)CC1 [CBK267734] | 94.2
44 | CNS(=O)(=O)c1ccc(NC(=O)c2cc(-c3ccc4c(c3)OCO4)nc3ccccc23)cc1 [CBK267735] | 99
45 | Cc1ccc2nc(-c3ccncc3)cc(C(=O)N3CCN(C4CCCCC4)CC3)c2c1 [CBK267736] | 96.4
46 | Cc1cc(-c2cc(C(=O)NN3CCN(C)CC3)c3cc(Cl)ccc3n2)c(C)s1 [CBK267738] | 102
47 | NS(=O)(=O)c1ccc(CNC(=O)c2cc(-c3cccnc3)nc3ccc(Br)cc23)cc1 [CBK267740] | 96.9
48 | Cc1ccccc1-c1cc(C(=O)Nc2ccc(S(N)(=O)=O)cc2)c2cc(Cl)ccc2n1 [CBK267741] | 90
49 | Cc1cccc2c(C(=O)NCc3ccc(S(N)(=O)=O)cc3)cc(-c3ccccc3Cl)nc12 [CBK267743] | 93
50 | CC1CCc2c(sc(NC(=O)c3cc(-c4ccccn4)nc4c(Cl)cccc34)c2C(N)=O)C1 (centres unmarked) [CBK267744] | 94.1
51 | CC(=O)Nc1cccc(NC(=O)c2cc(-c3ccccn3)nc3ccc(Cl)cc23)c1 [CBK267747] | 95.1
52 | O=C(c1cc(-c2ccncc2)nc2ccc(Cl)cc12)N1CCN(c2ccc([N+](=O)[O-])cc2)CC1 [CBK267748] | 83.8
53 | COc1ccc(S(=O)(=O)N2CCN(C(=O)c3cc(-c4ccncc4)nc4ccc(Br)cc34)CC2)cc1 [CBK267750] | 101
54 | Cc1ccc2nc(-c3ccncc3)cc(C(=O)N3CCN(c4ncccn4)CC3)c2c1 [CBK267751] | 93

Row | Structure (SMILES) | viability at 28.5 h, 10 µM [%]
55 | O=C(c1cc(-c2ccncc2)nc2ccc(Cl)cc12)N1CCN(C/C=C/c2ccccc2)CC1 [CBK267754] | 106
56 | CC(CN1CCCCC1)NC(=O)c1cc(-c2ccncc2)nc2ccc(Br)cc12 (centres unmarked) [CBK267756] | 90.6
57 | Cc1ccccc1-c1cc(C(=O)NCCCn2cc(Br)cn2)c2ccccc2n1 [CBK267758] | 97.8
58 | CN(C)CCNC(=O)c1cc(-c2cccnc2)nc2c(Cl)cccc12 [CBK267761] | 112
59 | O=C(c1cc(-c2ccncc2)nc2ccc(Cl)cc12)N1CCN(Cc2ccc3c(c2)OCO3)CC1 [CBK267765] | 85.4
60 | COc1ccc(S(=O)(=O)N2CCN(C(=O)c3cc(-c4cccnc4)nc4c(C)cc(C)cc34)CC2)cc1OC [CBK267767] | 99.4
61 | Cc1cc(C)c2nc(-c3ccccn3)cc(C(=O)NCc3cccs3)c2c1 [CBK267772] | 86.1
62 | CC(=O)Nc1cccc(NC(=O)c2cc(-c3ccncc3)nc3ccc(Cl)cc23)c1 [CBK267773] | 92.6
63 | NS(=O)(=O)c1ccc(CNC(=O)c2cc(-c3cccc(Cl)c3)nc3ccccc23)cc1 [CBK267774] | 88.7
64 | CNS(=O)(=O)c1ccc(NC(=O)c2cc(-c3cccnc3)nc3ccc(Br)cc23)cc1 [CBK267776] | 95.5
65 | COc1ccc(NC(=O)c2cc(-c3cccc(Cl)c3)nc3ccccc23)c([N+](=O)[O-])c1 [CBK267777] | 86.7
66 | Cc1cc(C)c2nc(-c3ccccn3)cc(C(=O)Nc3ccc(S(=O)(=O)Nc4cc(C)on4)cc3)c2c1 [CBK267779] | 105
67 | Cc1c(-c2cccc(Cl)c2)nc2ccccc2c1C(=O)NCCc1ccc(S(N)(=O)=O)cc1 [CBK267784] | 96
68 | O=C(Oc1cccc(-c2cnc3ccccc3n2)c1)c1ccc(S(=O)(=O)N2CCCCC2)cc1 [CBK267785] | 104
69 | O=C(O)c1[nH]c2ccccc2c1C(c1cccs1)c1c(C(=O)O)[nH]c2ccccc12 [CBK267786] | 118
70 | N#CC1=C(N)Oc2[nH]nc(-c3ccccc3)c2C12C(=O)N(Cc1ccccc1)c1ccccc12 (centres unmarked) [CBK267787] | 93.7
71 | O=C(O)c1[nH]c2ccccc2c1C(c1ccc(OC2CCCC2)cc1)c1c(C(=O)O)[nH]c2ccccc12 [CBK267789] | 85.9
72 | CN(C)CCNCCCSc1ccc(Cl)cc1 [CBK267794C] | 104
73 | O=C(c1c[nH]c2ccccc12)C(O)C(c1ccccc1)N1CCCCC1 (centres unmarked) [CBK267799] | 94.1
74 | CN(C)CCNCCOc1cccc([N+](=O)[O-])c1 [CBK267803C] | 99.7
75 | COc1cc(C(c2c(C(=O)O)[nH]c3ccccc23)c2c(C(=O)O)[nH]c3ccccc23)cc(I)c1O [CBK267804] | 90.6
76 | Cc1ccc(OC(=O)c2ccc(S(=O)(=O)N(C)C)cc2)c(-n2nc3ccccc3n2)c1 [CBK267805] | 81.2
77 | O=C(Nc1ccccc1)c1ccc(S(=O)(=O)N2CCC(C(=O)O)CC2)cc1 [CBK267806] | 89.7
78 | CN(C)S(=O)(=O)c1ccc(C(=O)Nc2ccccc2O)cc1 [CBK267809] | 94.1
79 | CC(NC(=O)c1ccccc1Br)c1nnc(SCc2ccc([N+](=O)[O-])cc2)n1C (centres unmarked) [CBK267810] | 103
80 | O=C(O)c1[nH]c2ccccc2c1C(c1ccsc1)c1c(C(=O)O)[nH]c2ccccc12 [CBK267811] | 103
